Drawing on publication PMC2386736 (Protein Science : A Publication of the Protein Society, 2009), this text covers EC50 for two compounds.

Common to all, as to format: biochemical
Experiment [1] addresses T1, USP2 (Homo sapiens, UniProt O75604). Put plainly: Ub-PLA2 / NBD C6-HPC coupled fluorescence isopeptidase assay.
For experiment [2], the target named is T2, SENP2 (Homo sapiens, UniProt Q9HC62).
T2 sequence (Q9HC62 366-589): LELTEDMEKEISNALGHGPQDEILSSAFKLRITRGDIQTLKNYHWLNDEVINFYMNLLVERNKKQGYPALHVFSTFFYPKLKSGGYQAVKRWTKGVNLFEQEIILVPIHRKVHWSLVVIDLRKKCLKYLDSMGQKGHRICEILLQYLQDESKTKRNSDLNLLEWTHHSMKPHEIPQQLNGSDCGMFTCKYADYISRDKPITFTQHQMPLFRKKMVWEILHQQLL
Put plainly: SUMO3-PLA2 / NBD C6-HPC coupled fluorescence isopeptidase assay.

Experiment [3] has as its target T3, USP7 (Homo sapiens, UniProt Q93009). Nature of the experiment: Ub-PLA2 / NBD C6-HPC coupled fluorescence isopeptidase assay.
In experiment [4] the target is T2, SENP2.
Experiment [5] addresses T1, USP2.
For experiment [6], the target named is T3, USP7.

Read-outs that look alike come from different tables or passages of the source.

Broadly, the EC50 is the concentration needed to bring the measured effect to its halfway point. Low values mean a more potent agent, high ones a less potent agent.

T3 sequence (Q93009 whole entry): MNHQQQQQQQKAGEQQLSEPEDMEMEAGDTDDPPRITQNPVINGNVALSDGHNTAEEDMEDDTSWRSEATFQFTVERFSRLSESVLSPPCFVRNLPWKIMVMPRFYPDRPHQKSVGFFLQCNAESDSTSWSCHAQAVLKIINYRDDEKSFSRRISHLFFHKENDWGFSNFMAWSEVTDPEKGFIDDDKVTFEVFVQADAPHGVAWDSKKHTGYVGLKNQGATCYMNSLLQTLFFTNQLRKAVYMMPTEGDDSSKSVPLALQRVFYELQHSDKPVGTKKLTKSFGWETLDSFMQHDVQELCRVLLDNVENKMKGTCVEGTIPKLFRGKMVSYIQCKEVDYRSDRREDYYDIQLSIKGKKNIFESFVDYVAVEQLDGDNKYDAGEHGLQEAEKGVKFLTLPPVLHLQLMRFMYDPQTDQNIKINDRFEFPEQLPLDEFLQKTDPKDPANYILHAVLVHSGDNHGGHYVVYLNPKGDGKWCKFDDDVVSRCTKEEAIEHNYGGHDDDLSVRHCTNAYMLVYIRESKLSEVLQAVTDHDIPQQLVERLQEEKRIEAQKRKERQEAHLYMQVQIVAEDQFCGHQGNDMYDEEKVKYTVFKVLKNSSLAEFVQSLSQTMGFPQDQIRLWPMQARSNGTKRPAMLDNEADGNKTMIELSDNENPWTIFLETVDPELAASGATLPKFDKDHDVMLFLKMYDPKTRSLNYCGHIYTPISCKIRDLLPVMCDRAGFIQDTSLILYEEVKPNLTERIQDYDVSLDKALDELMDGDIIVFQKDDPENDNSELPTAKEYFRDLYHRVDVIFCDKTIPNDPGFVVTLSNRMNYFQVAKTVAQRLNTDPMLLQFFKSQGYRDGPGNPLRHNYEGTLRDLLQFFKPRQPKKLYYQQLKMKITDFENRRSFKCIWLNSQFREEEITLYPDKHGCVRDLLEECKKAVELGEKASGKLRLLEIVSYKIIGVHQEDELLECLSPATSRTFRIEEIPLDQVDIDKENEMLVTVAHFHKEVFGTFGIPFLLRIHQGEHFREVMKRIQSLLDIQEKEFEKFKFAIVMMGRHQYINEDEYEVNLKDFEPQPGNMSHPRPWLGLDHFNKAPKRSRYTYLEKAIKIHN
T1 sequence (O75604 259-605): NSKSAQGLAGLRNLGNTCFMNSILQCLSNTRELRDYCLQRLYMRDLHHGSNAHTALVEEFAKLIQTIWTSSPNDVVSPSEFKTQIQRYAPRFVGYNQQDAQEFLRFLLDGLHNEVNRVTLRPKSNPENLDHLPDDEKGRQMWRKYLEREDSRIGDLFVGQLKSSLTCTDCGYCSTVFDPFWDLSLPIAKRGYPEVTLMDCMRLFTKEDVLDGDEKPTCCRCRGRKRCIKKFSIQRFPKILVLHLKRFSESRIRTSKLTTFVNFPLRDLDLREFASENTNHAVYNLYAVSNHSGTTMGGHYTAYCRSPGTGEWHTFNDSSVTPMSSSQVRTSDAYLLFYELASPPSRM

In the case of `CCN1C(=O)C=CC1=O` [N‐Ethylmaleimide], the EC50 at USP2 [1] came out at 1900 ± 200 µM; at SENP2 [2], 1300 ± 200 µM; at USP7 [3], 1400 ± 70 µM.

For `Cc1ccc(/C=C2\CNC/C(=C\c3ccc(C)cc3)C2=O)cc1` [NSC 632839], the figures for the EC50 on SENP2 [4], on USP2 [5] and at USP7 [6] were 9.8 ± 1.8 µM, 45 ± 4 µM and 37 ± 1 µM, respectively.
